Holding throughout (assay type): cell-based
Experiment [1] relates to INS-1 cells. The experiment in a line: glucose-dependent insulin secretion in INS-1 cells, ID 1101 with Exendin-4. The conditions noted are these: 4.5 mM glucose, 1 hour. How it is done: The optical isomer 2S,3R,4S of 4-hydroxyisoleucine (ID 1101) was tested alone and in combination with Exendin-4, to determine the insulinotropic effect on INS-1 cells. Briefly, the cells were plated at a density of 2×10^5 in 12 well plates and incubated for 2 days in RPMI with 10% fetal calf serum and 11 mM glucose. The medium was removed on the third day post-plating and replaced with RPMI containing 3 mM glucose with 10% fetal calf serum. The cells were incubated for an additional 24 hours. On the fourth day post-plating, the medium was removed and replaced with Krebs-Ringers bicarbonate buffer containing 2 mM glucose. The cells were incubated for 30 ninutes. The buffer was removed and replaced with Krebs-Ringers bicarbonate buffer with 4.5 mM glucose, containing ID 1101 at 0.01 or 0.05 mM, Exendin-4 alone at 10^−9 mM or 10^−10 mM, or a combination of the 2 compounds. The cells were incubated for 1 hour. Basal insulin secretion was determined by incubating the cells in the presence of buffer with 2 mM glucose. The effect of glucose at 4.5 mM served as the control.

The test system of experiment [2] is differentiated 3T3-L1 adipocyte cells. The experiment can be described thus: uptake of 3H-deoxy-glucose by differentiated 3T3-L1 adipocyte cells. The following applies: last 30 minutes of 5 hour starvation, control cells 2 pmol/mg/minute. How it is done:
Briefly, 3T3-L1 adipocyte cells (ATCC; Cl-173) were cultured in 12 well tissue culture plates for 3 days in order to reach confluence ([…] al., “Analysis of insulin-stimulated glucose uptake in differentiated 3T3-L1 adipocytes,” Diabetes Mellitus: Methods and Protocols, ([…]., 2003, pages 97-103). The culture medium was removed and replaced with differentiation-medium (Green et al., Cell 3:127-133, 1974; Madsen et al., Biochem. J. 375:539-549, 2003), and then the cells were incubated for an additional 9 days. The state of differentiation was confirmed by visual examination. Cell starvation was conducted for 5 hours by replacing the differentiation medium with medium lacking fetal calf serurn. During the starvation period, the cells were exposed ID 1101 (0.5 or 1.0 mM), for 0.5, 1, 2, 4, or 5 hours. The cells were exposed to insulin (0.0167 U/ml; Sigma; Cat. No. 15534) for the last 0.5 hour of the starvation period, either alone or in combination ID 1101. The cells were washed, and then fresh medium containing 16 μM ^3H-Deoxy-D-glucose (0.5 μCi/ml) and 10 μM 2-Deoxy-D-glucose was added and the cells were incubated for 10 minutes. Glucose uptake was stopped by washing the cells with ice cold PBS. The cells were lysed and specific activity in the lysate was determined relative to background uptake of ^3H-deoxy-glucose. […]

Experiment [3] relates to INS-1 cells. The experiment in a line: glucose-dependent insulin secretion in INS-1 cells, ID 1101 with Glibenclamide. The conditions noted are these: 4.5 mM glucose, 1 hour. How it is done: The optical isomer 2S,3R,4S of 4-hydroxyisoleucine (ID 1101) was tested in a blinded manner, alone and in combination with Glibenclamide, to determine the insulinotropic effect on INS-1 cells. Briefly, the cells were plated at a density of 2×10^5 in 12 well plates and incubated for 2 days in RPMI with 10% fetal calf serum and 11 mM glucose. The medium was removed on the third day post-plating and replaced with RPMI containing 3 mM glucose with 10% fetal calf serum. The cells were incubated for an additional 24 hours. On the fourth day post-plating, the medium was removed and replaced with Krebs-Ringers bicarbonate buffer containing 2 mM glucose. The cells were incubated for 30 minutes. The buffer was removed and replaced with Krebs-Ringers bicarbonate buffer with 4.5 mM glucose, containing ID 1101 at 0.1 mM, Glibenclamide alone at 10-10 mM or 10^−11 mM, or a combination of the 2 compounds. The cells were incubated for 1 hour. Basal insulin secretion was determined by incubating the cells in the presence of buffer with 2 mM glucose. The presence of glucose at 4.5 mM stimulated insulin secretion and served as the positive control.

As for Exendin-4 [reference compound], the insulin secretion entry with INS-1 cells [1] (Exendin-4 10^−9 and 10^−10 mM) is recorded as “did not show a stimulatory effect”.
On to `C[C@@H]([C@H](C)O)[C@H](N)C(=O)O` [ID 1101, 4-hydroxyisoleucine], for which, in experiment [2] (ID 1101 0.5 or 1.0 mM as sole treatment), the “stimulation of glucose uptake above the background level” value is listed as “approximately 5 pmol/mg/minute”. Moreover, the insulin secretion result with INS-1 cells [3] (ID 1101 0.1 mM) and in the experiment with INS-1 cells [1] (ID 1101 0.01 or 0.05 mM) was “stimulated insulin secretion above background levels” throughout.
In the case of insulin, the “stimulation of glucose uptake above the background level” value in experiment [2] (insulin 0.0167 U/ml as sole treatment) is “approximately 5 pmol/mg/minute”.
Turning to `COc1ccc(Cl)cc1C(=O)NCCc1ccc(S(=O)(=O)NC(=O)NC2CCCCC2)cc1` [Glibenclamide], the insulin secretion entry in the experiment with INS-1 cells [3] (Glibenclamide 10^−10 mM) is “showed a stimulatory effect”; with INS-1 cells [3] (Glibenclamide 10^−11 mM) it was “not”.
